IC50 data for 25 molecules are collected here from BindingDB's records for patent US9796704 (SYMPHONY EVOLUTION, INC., 2017).

Assay in all cases: AlphaScreen Assay
In assay [1] the target is Receptor tyrosine-protein kinase erbB-2 (Homo sapiens, UniProt P04626).
Assay [2] addresses Vascular endothelial growth factor receptor 1 (Homo sapiens, UniProt P17948).
Another assay concerns the target Ephrin type-A receptor 2 (Homo sapiens, UniProt P29317).
Assay [3] deals with Vascular endothelial growth factor receptor 2 (Homo sapiens, UniProt P35968).
Chain of Vascular endothelial growth factor receptor 2 (P35968 whole entry): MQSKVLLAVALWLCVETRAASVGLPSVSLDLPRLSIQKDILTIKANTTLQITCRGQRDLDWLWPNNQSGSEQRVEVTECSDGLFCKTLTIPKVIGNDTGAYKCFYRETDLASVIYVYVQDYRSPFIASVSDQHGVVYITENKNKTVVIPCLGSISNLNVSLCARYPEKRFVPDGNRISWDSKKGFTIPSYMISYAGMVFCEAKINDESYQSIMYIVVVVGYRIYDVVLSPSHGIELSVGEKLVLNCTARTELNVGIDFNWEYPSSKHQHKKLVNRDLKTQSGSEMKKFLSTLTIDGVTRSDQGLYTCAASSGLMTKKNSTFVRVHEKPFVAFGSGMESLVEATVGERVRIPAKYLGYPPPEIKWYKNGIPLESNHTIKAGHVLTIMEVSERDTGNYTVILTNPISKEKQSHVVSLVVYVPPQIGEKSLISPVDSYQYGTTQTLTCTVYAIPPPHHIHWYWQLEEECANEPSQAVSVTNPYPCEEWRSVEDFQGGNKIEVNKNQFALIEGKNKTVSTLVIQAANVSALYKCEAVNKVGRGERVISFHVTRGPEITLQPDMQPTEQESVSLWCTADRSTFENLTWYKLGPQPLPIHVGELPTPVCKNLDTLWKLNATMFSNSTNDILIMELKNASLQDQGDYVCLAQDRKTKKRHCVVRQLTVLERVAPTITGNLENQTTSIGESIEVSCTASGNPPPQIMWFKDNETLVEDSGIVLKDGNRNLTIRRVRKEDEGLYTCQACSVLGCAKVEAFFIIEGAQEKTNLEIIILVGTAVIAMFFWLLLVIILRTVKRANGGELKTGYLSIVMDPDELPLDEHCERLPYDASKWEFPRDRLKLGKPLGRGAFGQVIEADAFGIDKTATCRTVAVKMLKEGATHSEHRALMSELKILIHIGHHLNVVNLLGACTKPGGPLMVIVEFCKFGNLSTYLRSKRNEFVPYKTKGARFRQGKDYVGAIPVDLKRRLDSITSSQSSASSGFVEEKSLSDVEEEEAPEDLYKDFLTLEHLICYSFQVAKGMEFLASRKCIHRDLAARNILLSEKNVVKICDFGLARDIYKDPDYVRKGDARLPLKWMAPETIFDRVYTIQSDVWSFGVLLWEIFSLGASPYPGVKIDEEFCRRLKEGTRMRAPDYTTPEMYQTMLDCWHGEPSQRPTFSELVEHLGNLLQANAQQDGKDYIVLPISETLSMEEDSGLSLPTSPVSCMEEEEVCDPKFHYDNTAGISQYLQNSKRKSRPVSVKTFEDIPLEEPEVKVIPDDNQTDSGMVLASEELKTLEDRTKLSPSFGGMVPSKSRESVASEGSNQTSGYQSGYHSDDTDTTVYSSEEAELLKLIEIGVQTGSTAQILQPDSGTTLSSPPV
The target in the next assay is T1, Ephrin type-B receptor 4 (Homo sapiens, UniProt P54760).
T1 sequence (P54760 whole entry): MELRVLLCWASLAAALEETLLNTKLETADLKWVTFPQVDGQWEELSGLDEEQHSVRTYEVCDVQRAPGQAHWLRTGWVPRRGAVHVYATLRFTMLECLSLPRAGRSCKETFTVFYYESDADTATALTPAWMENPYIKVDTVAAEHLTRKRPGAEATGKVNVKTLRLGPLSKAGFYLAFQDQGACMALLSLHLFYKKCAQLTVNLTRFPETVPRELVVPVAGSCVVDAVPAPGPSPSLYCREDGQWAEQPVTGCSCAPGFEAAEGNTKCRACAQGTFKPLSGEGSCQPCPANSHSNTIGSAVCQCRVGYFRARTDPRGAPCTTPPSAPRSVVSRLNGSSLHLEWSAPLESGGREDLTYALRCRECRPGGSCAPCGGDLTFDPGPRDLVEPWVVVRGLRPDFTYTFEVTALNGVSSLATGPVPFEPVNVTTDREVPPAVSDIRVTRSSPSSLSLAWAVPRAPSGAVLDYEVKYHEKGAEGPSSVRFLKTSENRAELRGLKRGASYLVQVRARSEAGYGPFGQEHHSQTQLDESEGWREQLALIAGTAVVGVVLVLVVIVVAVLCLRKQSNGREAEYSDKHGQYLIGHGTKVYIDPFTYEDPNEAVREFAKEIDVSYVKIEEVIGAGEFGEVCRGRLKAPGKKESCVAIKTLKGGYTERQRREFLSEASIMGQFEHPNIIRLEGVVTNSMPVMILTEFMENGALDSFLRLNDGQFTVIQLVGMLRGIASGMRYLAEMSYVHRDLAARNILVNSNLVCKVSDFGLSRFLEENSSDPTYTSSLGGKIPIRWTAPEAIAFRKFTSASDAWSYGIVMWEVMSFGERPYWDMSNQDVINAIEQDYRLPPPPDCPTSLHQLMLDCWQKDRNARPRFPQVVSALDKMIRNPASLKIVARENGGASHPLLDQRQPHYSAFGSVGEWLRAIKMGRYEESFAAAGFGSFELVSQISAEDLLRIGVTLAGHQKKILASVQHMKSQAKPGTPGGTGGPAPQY

Chain of Ephrin type-A receptor 2 (P29317 whole entry): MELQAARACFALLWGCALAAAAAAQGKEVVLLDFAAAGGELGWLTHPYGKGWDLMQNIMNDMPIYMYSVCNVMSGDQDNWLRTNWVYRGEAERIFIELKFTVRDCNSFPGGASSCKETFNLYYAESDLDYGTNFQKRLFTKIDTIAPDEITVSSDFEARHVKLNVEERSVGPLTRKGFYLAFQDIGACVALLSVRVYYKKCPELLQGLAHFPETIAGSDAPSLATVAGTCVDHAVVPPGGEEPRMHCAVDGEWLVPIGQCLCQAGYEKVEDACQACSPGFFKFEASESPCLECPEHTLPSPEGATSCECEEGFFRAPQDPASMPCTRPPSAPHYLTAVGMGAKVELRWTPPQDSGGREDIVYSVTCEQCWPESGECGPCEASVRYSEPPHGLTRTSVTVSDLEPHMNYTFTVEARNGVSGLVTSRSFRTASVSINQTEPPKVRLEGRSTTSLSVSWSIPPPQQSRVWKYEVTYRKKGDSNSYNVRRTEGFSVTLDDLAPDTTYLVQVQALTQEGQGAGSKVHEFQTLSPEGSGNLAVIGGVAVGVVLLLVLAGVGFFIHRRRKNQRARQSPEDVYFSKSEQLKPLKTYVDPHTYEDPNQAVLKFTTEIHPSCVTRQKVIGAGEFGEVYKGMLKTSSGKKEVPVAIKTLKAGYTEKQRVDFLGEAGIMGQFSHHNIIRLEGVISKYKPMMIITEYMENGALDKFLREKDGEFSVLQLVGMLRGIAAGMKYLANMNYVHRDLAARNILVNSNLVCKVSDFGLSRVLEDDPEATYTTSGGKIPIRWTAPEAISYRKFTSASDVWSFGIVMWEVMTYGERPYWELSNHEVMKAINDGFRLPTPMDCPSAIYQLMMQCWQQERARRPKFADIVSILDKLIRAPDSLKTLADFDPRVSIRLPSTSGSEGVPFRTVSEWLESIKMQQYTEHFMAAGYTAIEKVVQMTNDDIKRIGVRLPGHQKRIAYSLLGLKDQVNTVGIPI
Chain of Vascular endothelial growth factor receptor 1 (P17948 whole entry): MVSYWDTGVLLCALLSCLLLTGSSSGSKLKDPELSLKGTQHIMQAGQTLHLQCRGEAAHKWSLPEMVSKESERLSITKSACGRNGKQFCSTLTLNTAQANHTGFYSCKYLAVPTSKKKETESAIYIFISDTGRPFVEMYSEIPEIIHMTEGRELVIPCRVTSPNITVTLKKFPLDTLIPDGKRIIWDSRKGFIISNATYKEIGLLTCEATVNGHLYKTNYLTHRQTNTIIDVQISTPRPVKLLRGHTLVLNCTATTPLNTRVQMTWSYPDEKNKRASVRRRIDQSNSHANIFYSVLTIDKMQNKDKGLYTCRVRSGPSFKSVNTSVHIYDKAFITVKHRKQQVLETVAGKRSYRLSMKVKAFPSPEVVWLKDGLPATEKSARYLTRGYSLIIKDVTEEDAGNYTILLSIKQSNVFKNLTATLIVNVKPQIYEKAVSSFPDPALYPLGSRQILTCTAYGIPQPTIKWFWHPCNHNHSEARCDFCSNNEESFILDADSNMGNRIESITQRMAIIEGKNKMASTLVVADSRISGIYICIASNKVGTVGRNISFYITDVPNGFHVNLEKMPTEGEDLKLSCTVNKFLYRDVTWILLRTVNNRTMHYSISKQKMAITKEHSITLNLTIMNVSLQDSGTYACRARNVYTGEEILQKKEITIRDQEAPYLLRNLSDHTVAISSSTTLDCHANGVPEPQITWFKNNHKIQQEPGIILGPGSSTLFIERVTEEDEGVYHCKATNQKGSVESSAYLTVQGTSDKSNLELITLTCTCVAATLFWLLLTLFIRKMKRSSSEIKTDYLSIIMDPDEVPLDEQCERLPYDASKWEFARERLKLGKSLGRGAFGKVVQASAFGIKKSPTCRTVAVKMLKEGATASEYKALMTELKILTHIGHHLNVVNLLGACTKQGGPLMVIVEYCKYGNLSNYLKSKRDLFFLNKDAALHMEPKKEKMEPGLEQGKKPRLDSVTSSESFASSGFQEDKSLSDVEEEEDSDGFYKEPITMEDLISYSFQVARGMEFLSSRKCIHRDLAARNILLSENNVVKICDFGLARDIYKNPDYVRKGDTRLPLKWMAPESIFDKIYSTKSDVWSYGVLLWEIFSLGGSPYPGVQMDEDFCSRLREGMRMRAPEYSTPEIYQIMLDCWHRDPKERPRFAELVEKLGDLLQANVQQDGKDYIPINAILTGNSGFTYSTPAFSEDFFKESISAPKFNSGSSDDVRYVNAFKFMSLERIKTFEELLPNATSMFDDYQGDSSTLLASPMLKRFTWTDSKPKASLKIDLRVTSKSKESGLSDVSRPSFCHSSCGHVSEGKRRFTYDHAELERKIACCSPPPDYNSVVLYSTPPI
Chain of Receptor tyrosine-protein kinase erbB-2 (P04626 whole entry): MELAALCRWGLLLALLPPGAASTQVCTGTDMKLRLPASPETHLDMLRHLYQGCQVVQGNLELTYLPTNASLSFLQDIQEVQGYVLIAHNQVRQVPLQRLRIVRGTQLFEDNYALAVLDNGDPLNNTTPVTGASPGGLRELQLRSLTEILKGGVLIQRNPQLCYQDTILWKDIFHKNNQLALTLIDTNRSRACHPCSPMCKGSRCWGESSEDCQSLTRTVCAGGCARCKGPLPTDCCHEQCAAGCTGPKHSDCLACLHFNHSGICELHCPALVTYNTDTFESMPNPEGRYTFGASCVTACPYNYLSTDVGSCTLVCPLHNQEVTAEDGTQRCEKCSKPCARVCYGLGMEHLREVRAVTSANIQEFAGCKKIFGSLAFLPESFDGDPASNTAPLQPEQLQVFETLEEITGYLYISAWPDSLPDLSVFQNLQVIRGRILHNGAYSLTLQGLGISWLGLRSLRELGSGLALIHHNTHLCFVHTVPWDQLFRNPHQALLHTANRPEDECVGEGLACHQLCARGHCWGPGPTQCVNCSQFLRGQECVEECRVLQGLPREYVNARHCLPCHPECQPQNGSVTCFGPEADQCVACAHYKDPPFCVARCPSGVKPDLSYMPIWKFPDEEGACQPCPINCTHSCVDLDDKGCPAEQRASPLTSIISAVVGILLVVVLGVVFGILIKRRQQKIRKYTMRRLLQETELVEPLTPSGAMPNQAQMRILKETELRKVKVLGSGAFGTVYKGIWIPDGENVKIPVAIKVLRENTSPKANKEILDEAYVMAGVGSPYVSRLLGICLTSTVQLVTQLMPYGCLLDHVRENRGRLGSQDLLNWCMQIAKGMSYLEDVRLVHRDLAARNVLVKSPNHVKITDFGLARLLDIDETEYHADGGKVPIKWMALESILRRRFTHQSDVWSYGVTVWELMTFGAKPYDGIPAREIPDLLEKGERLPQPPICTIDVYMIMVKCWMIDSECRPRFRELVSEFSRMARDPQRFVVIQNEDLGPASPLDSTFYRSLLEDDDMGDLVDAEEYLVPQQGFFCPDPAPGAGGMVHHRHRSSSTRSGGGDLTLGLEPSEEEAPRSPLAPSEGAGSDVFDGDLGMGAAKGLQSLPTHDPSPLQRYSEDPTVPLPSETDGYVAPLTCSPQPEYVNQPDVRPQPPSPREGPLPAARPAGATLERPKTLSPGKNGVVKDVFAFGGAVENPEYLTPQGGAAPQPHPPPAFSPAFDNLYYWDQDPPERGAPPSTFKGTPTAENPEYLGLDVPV

In the case of `COc1cc2c(Nc3ccc(Cl)c(Cl)c3F)ncnc2cc1OC[C@@H]1C[C@@H]2CN(C(C)C)C[C@@H]2C1` [US9796704, Entry 1], the 50% inhibitory concentration (IC50) was less than 50 nM in assay [1] and “in the range around 525 nM” in assay [2].
The matching figures for `COc1cc2c(Nc3ccc(Br)c(Cl)c3F)ncnc2cc1OC[C@H]1C[C@@H]2CN(C)C[C@@H]2C1` [US9796704, Entry 10]: “in the range around 525 nM” and “in the range around 525 nM”.
For the molecule `COc1cc2c(Nc3ccc(F)c(Cl)c3F)ncnc2cc1OC[C@H]1C[C@@H]2CN(C)C[C@@H]2C1` [US9796704, Entry 11], the half-maximal inhibitory concentration (IC50) entry in assay [1] and in assay [2] was “in the range around 525 nM” throughout.
Take `COc1cc2c(Nc3cc(Cl)c(Cl)cc3F)ncnc2cc1OC[C@H]1C[C@@H]2CN(C)C[C@@H]2C1` [US9796704, Entry 12]: the concentration for half-maximal inhibition (IC50) in assay [1] and in assay [2] was less than 50 nM each time.
On to `COc1cc2c(Nc3cc(Cl)c(Br)cc3F)ncnc2cc1OC[C@H]1C[C@@H]2CN(C)C[C@@H]2C1` [US9796704, Entry 13], for which the IC50 in assay [1] and in assay [2] was less than 50 nM in each case.
As for `COc1cc2c(Nc3ccc(Br)c(Cl)c3Cl)ncnc2cc1OC[C@H]1C[C@@H]2CN(C)C[C@@H]2C1` [US9796704, Entry 14], the concentration for half-maximal inhibition (IC50) result in assay [1] and in assay [2] was “in the range around 525 nM” throughout.
Regarding `COc1cc2c(Nc3ccc(Cl)c(Cl)c3)ncnc2cc1OC[C@H]1C[C@@H]2CN(C)C[C@@H]2C1` [US9796704, Entry 15], the half-inhibitory concentration (IC50) was less than 50 nM in assay [1] and “in the range around 525 nM” in assay [2].
For `CCN1C[C@H]2C[C@@H](COc3cc4ncnc(Nc5ccc(Br)c(Cl)c5F)c4cc3OC)C[C@H]2C1` [US9796704, Entry 16], the IC50 entry is “in the range around 0.525 µM” against Ephrin type-A receptor 2, “in the range around 0.525 µM” in assay [3], “in the range around 525 nM” in assay [1] and “in the range around 525 nM” in assay [2].
As for `COc1cc2c(Nc3ccc(Br)c(Cl)c3F)ncnc2cc1OC[C@@H]1C[C@@H]2CN(CC(C)C)C[C@@H]2C1` [US9796704, Entry 17], the IC50 result at Ephrin type-A receptor 2 was “in the range around 0.525 µM”; in assay [3], “in the range around 0.525 µM”; in assay [1], “in the range around 10500 nM”; in assay [2], “in the range around 525 nM”.
As for `COc1cc2c(Nc3ccc(Br)c(Cl)c3F)ncnc2cc1OC[C@@H]1CN2CCOCC2CO1` (some centres not stated) [US9796704, Entry 23], the IC50 entry at Ephrin type-A receptor 2 was “in the range around 10.5 µM”; in assay [3], “in the range around 10.5 µM”; at Ephrin type-B receptor 4, “in the range around 10.5 µM”; in assay [2] it was “in the range around 525 nM”.
On to `COc1cc2c(Nc3ccc(Br)c(Cl)c3Cl)ncnc2cc1OC[C@@H]1CN2CCOCC2CO1` (some centres not stated) [US9796704, Entry 27], for which the IC50 result is “in the range around 525 nM” in assay [1] and less than 50 nM in assay [2].
Regarding `COc1cc2c(Nc3cc(Cl)c(Br)cc3F)ncnc2cc1OC[C@H]1CN2CCC[C@@H]2CO1` [US9796704, Entry 32], the IC50 entry was “in the range around 10.5 µM” at Ephrin type-A receptor 2, “in the range around 0.525 µM” in assay [3], “in the range around 0.525 µM” at Ephrin type-B receptor 4 and “in the range around 10500 nM” in assay [2].
`COc1cc2c(Nc3cc(Cl)c(Br)cc3F)ncnc2cc1OCC1CO[C@@H]2[C@@H](OC)CO[C@H]12` (some centres not stated) [US9796704, Entry 41]: the half-inhibitory concentration (IC50) entry in assay [1] and in assay [2] was “in the range around 525 nM” in each case.
For `COc1cc2c(Nc3ccc(Br)c(Cl)c3F)ncnc2cc1OCC1CO[C@@H]2[C@@H](OC)CO[C@H]12` (some centres not stated) [US9796704, Entry 44], the figures for the IC50 result in assay [1] and in assay [2] were “in the range around 10500 nM” and “in the range around 525 nM”, respectively.
For the molecule `COc1cc2c(Nc3ccc(Cl)c(Cl)c3F)ncnc2cc1OC[C@@H]1CN2CCC[C@H]2C(=O)N1` [US9796704, Entry 51], the half-inhibitory concentration (IC50) entry was “in the range around 10.5 µM” at Ephrin type-A receptor 2, “in the range around 10.5 µM” in assay [3] and “in the range around 10500 nM” in assay [2].
Regarding `COc1cc2c(Nc3ccc(Cl)c(Cl)c3F)ncnc2cc1OC[C@@H]1CN2CCC[C@@H]2C(=O)N1` [US9796704, Entry 52], the IC50 entry was “in the range around 10.5 µM” at Ephrin type-A receptor 2, “in the range around 10.5 µM” in assay [3] and “in the range around 10500 nM” in assay [2].
Regarding `COc1cc2c(Nc3ccc(Cl)c(Cl)c3F)ncnc2cc1OC[C@H]1CN2CCC[C@@H]2C(=O)N1C` [US9796704, Entry 54], the half-maximal inhibitory concentration (IC50) result at Ephrin type-A receptor 2 is “in the range around 10.5 µM”; in assay [3], “in the range around 10.5 µM”; against Ephrin type-B receptor 4, “in the range around 0.525 µM”; in assay [2], “in the range around 10500 nM”.
As to `COc1cc2c(Nc3ccc(Cl)c(Cl)c3)ncnc2cc1OCCNC1CC2CCC(C1)N2C` (configuration not stated) [US9796704, Entry 55], the concentration for half-maximal inhibition (IC50) result was “in the range around 10.5 µM” on Ephrin type-A receptor 2, “in the range around 525 nM” in assay [1] and “in the range around 10500 nM” in assay [2].
With `COc1cc2c(Nc3ccc(Cl)c(Cl)c3)ncnc2cc1OCC1CN2CSC[C@H]2CO1` (some centres not stated) [US9796704, Entry 56], the concentration for half-maximal inhibition (IC50) result against Ephrin type-A receptor 2 is “in the range around 10.5 µM”; in assay [3], “in the range around 10.5 µM”; in assay [2] it was “in the range around 10500 nM”.
Consider `COc1cc2c(Nc3ccc(Cl)c(Cl)c3)ncnc2cc1OCC1CC2CCC(C1)N2C` (configuration not stated) [US9796704, Entry 58], for which the IC50 entry in assay [2] is “in the range around 10500 nM”.
Turning to `COc1cc2c(Nc3ccc(Cl)c(Cl)c3)ncnc2cc1OC1CC2CCC(C1)N2C` (configuration not stated) [US9796704, Entry 60], the concentration for half-maximal inhibition (IC50) entry on Ephrin type-A receptor 2 is “in the range around 10.5 µM”; in assay [3], “in the range around 10.5 µM”; in assay [1], “in the range around 525 nM”; in assay [2], “in the range around 525 nM”.
Regarding `COc1cc2c(Nc3ccc(Br)c(Cl)c3Cl)ncnc2cc1O[C@H]1CO[C@H]2[C@@H]1OC[C@@H]2OC` [US9796704, Entry 66], the 50% inhibitory concentration (IC50) is greater than 20 µM in assay [3], “in the range around 10500 nM” in assay [1] and greater than 20000 nM in assay [2].
Regarding `CCN1CCCC1c1nc(COc2cc3ncnc(Nc4ccc(Cl)c(Cl)c4)c3cc2OC)cs1` (configuration not stated) [US9796704, Entry 256], the 50% inhibitory concentration (IC50) entry at Ephrin type-A receptor 2 is “in the range around 10.5 µM”; in assay [3], “in the range around 10.5 µM”; on Ephrin type-B receptor 4, “in the range around 0.525 µM”; in assay [1], “in the range around 10500 nM”.
Take `C=CCCCCN1CCOC(COc2cc3ncnc(Nc4ccc(Cl)c(Cl)c4)c3cc2OC)C1` (configuration not stated) [US9796704, Entry 274]: the IC50 result against Ephrin type-A receptor 2 is “in the range around 10.5 µM”; in assay [3] it was “in the range around 10.5 µM”; on Ephrin type-B receptor 4 it was “in the range around 10.5 µM”; in assay [1], “in the range around 10500 nM”.
Regarding `COC(=O)CCN1CCOC(COc2cc3ncnc(Nc4ccc(Cl)c(Cl)c4)c3cc2OC)C1` (configuration not stated) [US9796704, Entry 276], the 50% inhibitory concentration (IC50) result is “in the range around 10.5 µM” against Ephrin type-A receptor 2, “in the range around 10.5 µM” in assay [3], “in the range around 10.5 µM” against Ephrin type-B receptor 4 and “in the range around 10500 nM” in assay [1].

As usually defined, the IC50 is the concentration that inhibits the measured activity by half. Lower therefore signals inhibition by little substance.
